{"source": "patent US20230277553A1", "about": "“THERAPEUTIC COMPOSITION OF CURE-PRO COMPOUNDS FOR TARGETED DEGRADATION OF BET DOMAIN PROTEINS, AND METHODS OF MAKING AND USAGE” (CORNELL UNIVERSITY, priority 2020, published 2023)", "format_in_all_cases": "cell-based", "key": {"BRD4 [1]": {"molecular_target": "T1, BRD4 (Homo sapiens, UniProt O60885)", "assay": "CURE-PRO-mediated BRD4 degradation with VHL ligands, Western blot, MCF7 cells", "set-up": "endogenous in cells", "details": "MCF7, 24 h, 1:1 with 8305, 100 nM-10 μM", "experimental": "(§1) All cell lines were purchased from ATCC or DSMZ and grown at 37° C. with 5% CO2. Human HeLa cells were cultured in complete growth medium (Dulbecco's modified Eagle's medium (DMEM) supplemented with 10% FBS); MCF7 cells were cultured in complete growth medium (Dulbecco's modified Eagle's medium (DMEM) supplemented with 10% FBS and 0.01 mg/ml human recombinant insulin (Sigma Aldrich); Namalwa and MOLM-13 cells were cultured in complete growth medium (RPMI 1640 medium supplemented with 10% FBS); MV-4-11 were cultured in complete growth medium (Iscove's Modified Dulbecco's medium, supplemented with 10% FBS); HCT116 cells were cultured in complete growth medium (McCoy's 5a Medium supplemented with 10% FBS). For cellular degradation of BRD4 studies, cells were seeded in a 12-well plate at 70-80% confluency, allowed to attach overnight, and incubated with the indicated compounds for the indicated time. When indicated, a 15-minute pretreatment with 10 μM pomalidomide, 10 μM VHL298, 10 μM Nutlin3a, 1 μM MG-132 or 1 μM Carfilzomib was performed before the addition of CURE-PROs. For washout studies, after CURE-PRO treatment, media was aspirated and incubated with complete medium for the indicated time before lysis.\nHeLa, MCF7, or HCT116 cells (2.5-3×10^6) were treated for 24 hours with the indicated compounds solubilized in DMSO. The cells were washed in ice-cold PBS and were then lysed in RIPA lysis buffer (150 mM NaCl, 5 mM EDTA, 1% NP-40, 0.5% sodium deoxycholate, 0.1% SDS, 50 mM Tris, pH 8.0.) with Roche protease inhibitor complete cocktail and phosphatase inhibitors (10 mM sodium fluoride, 10 mM sodium pyrophosphate, 1 mM sodium orthovanadate and 20 mM β-glycerophosphate). The total protein concentrations were determined by Bradford Protein Assay and 10-20 μg of protein was loaded onto 4-15% Tris-Glycine gradient gels (Biorad). After standard gel electrophoresis, the separated proteins were transferred to PVDF membrane by wet transfer. The immunoblots were then blocked for 1 hour in 5% skim milk in TBST or 5% BSA in TBST, according to manufacturer's instructions, before an overnight incubation at 4° C. with indicated antibodies and membranes. Membranes were then incubated with the appropriate horseradish peroxidase-conjugated secondary antibodies (1:5,000 dilution) for 1 h at room temperature and the bands were visualized using the Clarity Max Western ECL Substrate (Biorad) and the ChemiDoc Imaging System (Biorad). Signal was detected with ECL Western Blotting Substrate (Pierce) and X-ray film processed with a Konica SRX-101 X-ray film processor or captured by Bio-Rad's Chemidoc Imaging system.\nMCF7 cells (3×10^6) were treated for 24 h with the compounds solubilized in DMSO. Compounds were added at 100 nM-10 μM. […]"}, "BRD4 [2]": {"molecular_target": "T1, BRD4", "assay": "CURE-PRO-mediated BRD4 degradation, WES (ProteinSimple), HeLa cells", "set-up": "endogenous in cells; host or cells: HeLa", "experimental": "as §1\nAnti-BRD4 (13440, 1:1,000 dilution for Western Blot and 1:25 dilution for ProteinSimple); Anti-BRD2 (5848 1:1,000 dilution for Western Blot and 1:25 dilution for ProteinSimple); β-Actin (3700, 1:2,000 dilution for Western Blot), β-Actin (4970, 1:50 dilution for ProteinSimple) anti-mouse IgG-HRP, and anti-rabbit IgG-HRP antibodies were purchased Cell Signaling Technology. Anti-GAPDH (600-401-A33, 1:100 dilution for ProteinSimple) was purchased from Rockland Immunochemicals, Inc. Anti-BRD3 (sc-81202, 1:200 dilution for Western Blot) was purchased from Santa Cruz Biotechnology.\nWES Simple analysis was performed on WES system (ProteinSimple-Biotechne) according to the manufacturer's instructions. Total protein concentrations of cell lysates were determined by the Pierce BCA kit (Thermo Fisher). 3 μL of 0.3 μg/μL of the protein lysate was loaded onto a 12- to 230-kDa WES assay plate (ProteinSimple) where 300 nL sample was withdrawn through a capillary, subjected to electrophoretic separation of proteins by size, and followed by the simultaneous, HRP-based detection of proteins using the Anti-Rabbit Detection Module (Proteinsimple: #DM-001). The electropherograms were checked then the automatic peak detection was manually corrected if it was required.\nHeLa cells (2.5×10^6) were treated for 4-24 hours with the compounds solubilized in DMSO. After 4 hours, indicated points were washed and cells were left in full growth media. Compounds were added at 10 μM each. […]"}, "caspase 3/7": {"tested_on": "caspase 3/7", "assay": "Caspase-Glo 3/7 assay, Namalwa cells", "details": "24 hours, 1:1 with 8047", "experimental": "Caspase-glo® assay (Promega) was conducted following the manufacturer's recommendations. Cells were seeded at a density of 5000 cells/well in a white 96 well plates (Corning, #3917) in a total volume of 100 μl with respective monomers, combinations of BRD ligands together with E3 ligase ligands or vehicle control treatment. After a 24 h incubation, 100 μl of the […] substrate was added per well and luminescence was read on a Spectramax M5 (Molecular Devices).\nNamalwa cells (5×104) were treated for 24 hours with the compounds solubilized in DMSO. FIG. 57 is a bar graph depiction of fold increase of apoptosis assessed via caspase 3/7 activity using the Caspase-glo assay (Promega) described above.\nMolm-13 (FIG. 76A) or Namalwa (FIG. 76B) cells (5×10^4) were treated for 24 hours with the compounds solubilized in DMSO in white 96 well plates (10 nM-10 μM solubilized in DMSO). FIG. 76 is a bar graph depiction of fold increase of apoptosis assessed via caspase 3/7 activity using the Caspase-glo assay (Promega) described above."}, "BRD4 [3]": {"molecular_target": "T1, BRD4", "assay": "Summary of BRD4 degradation by CURE-PRO pairs, estimated from Western Blot or WES (Proteinsimple)", "set-up": "endogenous in cells", "details": "Table 1, CRBN ligand", "from_the_text": "A black check mark indicates efficacy of 30% to 70% or higher protein degradation."}, "BRD4 [4]": {"molecular_target": "T1, BRD4", "assay": "CURE-PRO-mediated BRD4 degradation, Western blot, HeLa cells", "set-up": "endogenous in cells; host or cells: HeLa", "details": "24 h", "how_it_was_run": "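HeLa cells treated 24 h with compounds in DMSO (1-10 μM, 10 μM or 100 μM each; paired monomers combined 1:1), optional 15-min pretreatment with pomalidomide, VHL298, Nutlin3a (10 μM) or MG-132/carfilzomib (1 μM). RIPA lysates, 10-20 μg protein immunoblotted for BRD4 with β-actin, ECL detection.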"}}, "note": "“Also recorded” adds a separate entry of the source.", "data": [{"smiles": "COc1ccc2c(c1)C(c1ccc(Cl)cc1)=N[C@@H](CC(=O)NCc1ccc(B(O)O)cc1)c1nnc(C)n1-2", "note": "[BRD-E9, (4-((2-((4S)-6-(4-chlorophenyl)-8-methoxy-1-methyl-4H-benzo[f][1,2,4]triazolo[4,3-a][1,4]diazepin-4-yl)acetamido)methyl)phenyl)boronic acid]", "values": [{"measurement": "BRD4 degradation, with VHL ligand 8305 (Western blot)", "setting": "BRD4 [1]", "value": "there is degradation of BRD4"}]}, {"smiles": "CCNC(=O)C[C@@H]1N=C(c2ccc(Sc3ccccc3)cc2)c2cc(OC)ccc2-n2c(C)nnc21", "note": "[BRD-E52C, N-ethyl-2-((4S)-8-methoxy-1-methyl-6-(4-(phenylthio)phenyl)-4H-benzo[f][1,2,4]triazolo[4,3-a][1,4]diazepin-4-yl)acetamide]", "values": [{"measurement": "Concentration at which BRD4 degradation is induced, with 8047 (WES)", "setting": "BRD4 [2]; 24 h, tested 100 nM-10 μM each", "value": "> 10", "unit": "µM"}]}, {"smiles": "CCNC(=O)C[C@@H]1N=C(c2ccc(Sc3cccc(B(O)O)c3)cc2)c2cc(OC)ccc2-n2c(C)nnc21", "note": "[BRD-E52, (3-((4-((4S)-4-(2-(ethylamino)-2-oxoethyl)-8-methoxy-1-methyl-4H-benzo[f][1,2,4]triazolo[4,3-a][1,4]diazepin-6-yl)phenyl)thio)phenyl)boronic acid]", "values": [{"measurement": "BRD4 degradation, co-dosing with CRBN ligand 8047 (WES)", "setting": "BRD4 [2]; 10 μM each, 4-24 h with washout after 4 h, or 100 nM-10 μM", "value": "marked BRD4 degradation after 4h with sustained degradation for up to 8h after drugs are washed out"}, {"measurement": "Concentration from which BRD4 protein expression decreases, with 8047 (WES)", "setting": "BRD4 [2]; 24 h, tested 100 nM-10 μM each", "value": "≥ 300", "unit": "nM"}, {"measurement": "Caspase 3/7 activation, co-dosed with CRBN ligand 8047", "setting": "caspase 3/7", "value": "demonstrates activation of caspase 3/7; also recorded: marked caspase activation"}, {"measurement": "Degradation of BRD4 in combination with CRBN ligand [drawing 371]", "setting": "BRD4 [3]; second drawing (8047)", "value": "✓ (A black check mark indicates efficacy of 30% to 70% or higher protein degradation)"}, {"measurement": "Degradation of BRD4 in combination with CRBN ligand [drawing 372]", "setting": "BRD4 [3]; third drawing (8066)", "value": "✓ (A black check mark indicates efficacy of 30% to 70% or higher protein degradation)"}, {"measurement": "BRD4 degradation, BRD ligand with pomalidomide (no 8047)", "setting": "BRD4 [4]; 10 μM", "value": "failed to induce BRD4 degradation"}, {"measurement": "BRD4 degradation, co-treatment with CRBN ligand 8047", "setting": "BRD4 [4]; 1:1 with 8047, 10 μM each, Western blot", "value": "causes degradation of BRD4"}]}]}
